Measurements published in patent US20220315631A1, “STAPLED BETA-CATENIN LIGANDS” (Ohio State Innovation Foundation, priority 2019, published 2022).
Positions of bridges follow the written chain, without caps; N, C: chain ends. Non-standard residues stand in square brackets, D forms with d. Residues, ends and D or L forms follow the SMILES beside them. Chains are numbered I, II in the order given. 2Nal = N[C@@H](Cc1ccc2ccccc2c1)C(=O)O; Dap = NC[C@H](N)C(=O)O; AEEA = NCCOCCOCC(=O)O

Assays:
[1] = test system: MCF7 cells; experiment: MTT cell viability assay, MCF7 (Wnt-independent) cells; assay type: cell-based; conditions: up to 20 μM
Method: (§1) MTT Assay. SW480 (Wnt-addicted) and MCF7 (Wnt-independent) cells were seeded in 96-well plate with 3×10^3 cells per well, and allowed to grow overnight. […] After that, 10 μL of an MTT stock solution (5 mg/mL) was added into each well and the plate was incubated at 37° C. for 4 h. 100 μL of SDS-HCl solubilizing solution was added and the plate was incubated at 37° C. overnight. The absorbance of the formazan product formed was measured at 570 nm on a Tecan microtiter plate reader. Cells were incubated with serially diluted compounds for 72 hours in the presence of 10% FBS. Data reported represent the mean±SD of 3 independent experiments.
(§2) Cell Viability Assay. Cell viability was determined using the MTT assay. […] Trypsin was neutralized with the addition of warm DPBS and cells were pelleted down at 200 g for 5 min at 4° C. […] Com-pounds were serially diluted in DPBS with standardized DMSO concentration (0.5% v/v) and added to each well. […] After that, 10 μL of MTT solution was added to each well, followed by incubation for 4 h at 37° C., 5% CO2. […] The next day, A565 was determined using a Tecan M1000 Infinite plate reader and absorbance values were standardized against cell-free wells and normalized to untreated control cells. Data was analyzed using GraphPad Prism v. […]

[2] = test system: SW480 cells; assay type: cell-based
Method: as §1, §2

[3] = molecular target: T1, β-catenin (Homo sapiens, UniProt P35222); experiment: FP-based competition assay for binding to β-catenin
T1 construct: cells harboring plasmid pGEX-β-catenin(133-665)52 were grown in LB medium; made in house; host or cells: E. coli BL21 (DE3)
T1 sequence (P35222 133-665): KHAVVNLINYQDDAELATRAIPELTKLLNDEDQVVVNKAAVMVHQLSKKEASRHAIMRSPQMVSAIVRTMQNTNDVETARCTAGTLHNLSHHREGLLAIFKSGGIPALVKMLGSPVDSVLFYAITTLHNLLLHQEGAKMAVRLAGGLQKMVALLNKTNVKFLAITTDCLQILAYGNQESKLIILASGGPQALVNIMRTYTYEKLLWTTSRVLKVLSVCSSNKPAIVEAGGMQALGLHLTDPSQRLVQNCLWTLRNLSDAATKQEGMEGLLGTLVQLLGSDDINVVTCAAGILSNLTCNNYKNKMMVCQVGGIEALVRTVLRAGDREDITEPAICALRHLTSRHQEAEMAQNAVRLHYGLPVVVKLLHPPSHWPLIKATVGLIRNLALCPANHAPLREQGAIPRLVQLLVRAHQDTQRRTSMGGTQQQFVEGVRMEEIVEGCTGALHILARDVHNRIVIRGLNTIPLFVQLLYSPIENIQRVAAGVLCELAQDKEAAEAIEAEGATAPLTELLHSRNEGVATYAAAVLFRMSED
Method: Samples were transferred into black-on-black 384-well non-binding microplates (Greiner) and FP was measured using a Tecan M1000 Infinite plate reader. The data were analyzed using GraphPad Prism v. 8.0 and normalized to FP values corresponding to fully bound/unbound probe. All binding values reported are the mean±SD of independent experiments.
Protein Purification. […] Cells were harvested by centrifugation and lysed in lysis buffer (20 mM Tris, pH 8.0, 150 mM NaCl, 2 mM DTT, 1% Triton-X100, 200 mM EDTA, 10 mg/mL PMSF, and 0.2 mg/mL lysozyme) on ice for 20 min, followed by sonication (8 s off, 2 s on, 1 min total, performed twice at 70% amplitude). The homogenate was centrifuged (13,000 g for 30 min at 4° C. and the clear supernatant was loaded onto an equilibrated glutathione-agarose column. After exhaustive washing with wash buffer (20 mM Tris, pH 7.4, 150 mM NaCl, 2 mM DTT), the bound GST-β-catenin was eluted with wash buffer supplemented with 10 mM glutathione, concentrated, and stored at −80° C. in 30% glycerol.

[4] = Human serum stability; assay type: in vitro ADME
Method: Human Serum Stability. […] After protein precipitation was complete, each aliquot was centrifuged (15000 g, 5 min, 4° C.) and analyzed by RP-HPLC. The percentage of remaining peptide at a given time point was determined by integrating the peak area and compared it to that of the untreated control (100%).

[5] = molecular target: T2, GST-β-catenin, P35222; experiment: fluorescence polarization; 10 nM FAM-peptide 1 against serial dilutions of GST-β-catenin
T2 chain: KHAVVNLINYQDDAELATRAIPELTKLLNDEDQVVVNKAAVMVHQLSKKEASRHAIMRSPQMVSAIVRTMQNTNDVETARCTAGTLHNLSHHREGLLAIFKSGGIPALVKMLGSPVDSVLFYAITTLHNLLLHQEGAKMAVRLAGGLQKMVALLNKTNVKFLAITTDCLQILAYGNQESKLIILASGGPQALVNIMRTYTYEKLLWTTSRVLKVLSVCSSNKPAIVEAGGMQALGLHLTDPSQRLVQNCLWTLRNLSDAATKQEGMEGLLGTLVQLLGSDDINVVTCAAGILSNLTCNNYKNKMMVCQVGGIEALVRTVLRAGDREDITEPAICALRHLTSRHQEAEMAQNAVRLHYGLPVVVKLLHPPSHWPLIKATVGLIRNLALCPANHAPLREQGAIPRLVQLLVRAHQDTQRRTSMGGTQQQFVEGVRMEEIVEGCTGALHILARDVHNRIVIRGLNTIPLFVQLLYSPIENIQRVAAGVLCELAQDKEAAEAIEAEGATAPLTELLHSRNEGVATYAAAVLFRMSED

## CC[C@H](C)[C@@H]1NC(=O)[C@@H](NC(=O)[C@H](CCC(=O)O)NC(=O)[C@@H]2CCCN2C(=O)[C@H](Cc2ccc(O)cc2)NC(=O)CNC(=O)CNC(C)=O)CC(=O)NCCCC[C@@H](C(=O)N[C@@H](Cc2c[nH]cn2)C(=O)N[C@@H](CC(C)C)C(=O)N[C@@H](CCC(N)=O)C(=O)N[C@@H](CCCNC(=N)N)C(=O)N[C@H](C(=O)N[C@H](C(=O)N[C@@H](CC(C)C)C(=O)NCCOCCOCC(=O)NCCOCCOCC(=O)N[C@@H](CNC(=O)[C@H](CCCNC(=N)N)NC(=O)[C@H](CCCNC(=N)N)NC(=O)[C@H](CCCNC(=N)N)NC(=O)[C@H](CCCNC(=N)N)NC(=O)[C@H](CCCNC(=N)N)NC(=O)[C@H](CCCNC(=N)N)NC(=O)[C@H](CCCNC(=N)N)NC(=O)[C@H](CCCNC(=N)N)NC(=O)[C@@H](N)CCCNC(=N)N)C(N)=O)[C@@H](C)CC)C(C)C)NC(=O)[C@H](CC(=O)O)NC(=O)[C@H](CC(C)C)NC1=O [peptide 5]
[1]
  effect on MCF7 cell viability: reduced the viability of MCF7 cells

## CC[C@H](C)[C@@H]1NC(=O)[C@@H](NC(=O)[C@H](CCC(=O)O)NC(=O)[C@@H]2CCCN2C(=O)[C@H](Cc2ccc(O)cc2)NC(=O)CNC(=O)CNC(C)=O)CC(=O)NCCCC[C@@H](C(=O)N[C@@H](CC(=O)O)C(=O)N[C@@H](CC(C)C)C(=O)N[C@@H](CCC(N)=O)C(=O)N[C@@H](CCCNC(=N)N)C(=O)N[C@H](C(=O)N[C@@H](C)C(=O)N[C@@H](CC(C)C)C(=O)NCCOCCOCC(=O)NCCOCCOCC(=O)N[C@@H](CNC(=O)CC[C@@H]2NC(=O)[C@@H](CCCNC(=N)N)NC(=O)[C@H](CCCNC(=N)N)NC(=O)[C@@H](CCCNC(=N)N)NC(=O)[C@H](CCCNC(=N)N)NC(=O)[C@H](Cc3ccc4ccccc4c3)NC(=O)[C@@H](Cc3ccccc3)NC2=O)C(N)=O)C(C)C)NC(=O)[C@H](Cc2c[nH]cn2)NC(=O)[C@H](CC(C)C)NC1=O [peptide 3] (I: Ac-GGYPEDILHKDLQRVAL[AEEA][AEEA][Dap]-NH2 / II: cyclo([2Nal]R[dR]R[dR]E[dF]); lactam I:6-I:10 (inferred); amide I:20-II:6 (inferred); ring closure inferred)
[2]; at the highest concentration tested (20 μM)
  viability of SW480 cells: only slight decreases
[3]; relative to peptide 2
  lower affinity for β-catenin than peptide 2: ~10 fold

## CC[C@H](C)[C@@H]1NC(=O)[C@@H](NC(=O)[C@H](CCC(=O)O)NC(=O)[C@@H]2CCCN2C(=O)[C@H](Cc2ccc(O)cc2)NC(=O)CNC(=O)CNC(C)=O)CC(=O)NCCCC[C@@H](C(=O)N[C@@H](Cc2c[nH]cn2)C(=O)N[C@@H](CC(C)C)C(=O)N[C@@H](CCC(N)=O)C(=O)N[C@@H](CCCNC(=N)N)C(=O)N[C@H](C(=O)N[C@H](C(=O)N[C@@H](CC(C)C)C(=O)NCCC(N)=O)[C@@H](C)CC)C(C)(C)C)NC(=O)[C@H](CC(=O)O)NC(=O)[C@H](CC(C)C)NC1=O [Peptide 9, Ac-GGYPEDILDKHLQRZIL(β-Ala)-NH2]
[4]; human, human serum diluted 1:4 in DPBS, human serum, read-out: serum t1/2 (converted)
  half-life at 100 μM: ~12 h
[3]; IC50, competition with FAM-labeled peptide 1 (10 nM), 50 nM GST-β-catenin, read-out: KD or IC50
  IC50: 305 ± 19 nM

## CC[C@H](C)[C@@H]1NC(=O)[C@@H](NC(=O)[C@H](CCC(=O)O)NC(=O)[C@@H]2CCCN2C(=O)[C@H](Cc2ccc(O)cc2)NC(=O)CNC(=O)CNC(C)=O)CC(=O)NCCCC[C@@H](C(=O)N[C@@H](Cc2c[nH]cn2)C(=O)N[C@@H](CC(C)C)C(=O)N[C@@H](CCC(N)=O)C(=O)N[C@@H](CCCNC(=N)N)C(=O)N[C@H](C(=O)N[C@H](C(=O)N[C@@H](CC(C)C)C(=O)NCCOCCOCC(=O)NCCOCCOCC(=O)N[C@@H](CNC(=O)[C@H](CCC(N)=O)NC(=O)[C@@H]2CCCN2C(=O)[C@@H]2CCCN2C(=O)[C@H](CCCNC(=N)N)NC(=O)[C@H](CCCNC(=N)N)NC(=O)[C@H](CCCNC(=N)N)NC(=O)[C@H](CCC(N)=O)NC(=O)[C@H](CCCNC(=N)N)NC(=O)[C@H](CCCNC(=N)N)NC(=O)[C@H](CCCCN)NC(=O)[C@H](CCCCN)NC(=O)[C@H](CCCNC(=N)N)NC(=O)CN)C(N)=O)[C@@H](C)CC)C(C)C)NC(=O)[C@H](CC(=O)O)NC(=O)[C@H](CC(C)C)NC1=O [peptide 4]
[1]
  effect on MCF7 cell viability: reduced the viability of MCF7 cells

## CC[C@H](C)[C@@H]1NC(=O)[C@@H](NC(=O)[C@H](CCC(=O)O)NC(=O)[C@@H]2CCCN2C(=O)[C@H](Cc2ccc(O)cc2)NC(C)=O)CC(=O)NCCCC[C@@H](C(=O)N[C@@H](Cc2c[nH]cn2)C(=O)N[C@@H](CC(C)C)C(=O)N[C@@H](CCC(N)=O)C(=O)N[C@@H](CCCNC(=N)N)C(=O)N[C@H](C(=O)N[C@H](C(=O)N[C@@H](CC(C)C)C(N)=O)[C@@H](C)CC)C(C)(C)O)NC(=O)[C@H](CC(=O)O)NC(=O)[C@H](CC(C)C)NC1=O [Peptide 37]
[4]; relative to peptide 9
  serum stability compared to peptide 9: identical
[3]; relative to peptide 9
  binding affinity for β-catenin compared to peptide 9: identical

## CC[C@H](C)[C@@H]1NC(=O)[C@@H](NC(=O)[C@H](CCC(=O)O)NC(=O)[C@@H]2CCCN2C(=O)[C@H](Cc2ccc(O)cc2)NC(=O)CNC(=O)CNC(C)=O)CC(=O)NCCCC[C@@H](C(=O)N[C@@H](Cc2c[nH]cn2)C(=O)N[C@@H](CC(C)C)C(=O)N[C@@H](CCC(N)=O)C(=O)N[C@@H](CCCNC(=N)N)C(=O)N[C@H](C(=O)N[C@H](C(=O)N[C@@H](CC(C)C)C(=O)NCCOCCOCC(=O)NCCOCCOCC(=O)N[C@@H](CNC(=O)CC[C@@H]2NC(=O)[C@@H](CCCNC(=N)N)NC(=O)[C@H](CCCNC(=N)N)NC(=O)[C@@H](CCCNC(=N)N)NC(=O)[C@H](CCCNC(=N)N)NC(=O)[C@H](Cc3ccc4ccccc4c3)NC(=O)[C@@H](Cc3ccccc3)NC2=O)C(N)=O)[C@@H](C)CC)C(C)C)NC(=O)[C@H](CC(=O)O)NC(=O)[C@H](CC(C)C)NC1=O [peptide 2] (I: Ac-GGYPEDILDKHLQRVIL[AEEA][AEEA][Dap]-NH2 / II: cyclo([2Nal]R[dR]R[dR]E[dF]); lactam I:6-I:10; amide I:20-II:6)
[2]; MTT assay, read-out: EC50, viability / anti-proliferative activity against SW480 cells
  EC50: 3700 nM

B1: peptide 1 (peptide)
peptide: GGYPECILDCHLQRVIL
modifications: not checked
[5]
  Kd: 18 nM
